Reference: patent publication US12409126B2, “Ginsenoside-containing composition, daily-use chemical and use thereof” (InCipirit Tech (Guangzhou) Co., Ltd., priority 2023, dated 2025)
Counter-ions that a name gives are not always drawn.

System: human epidermal keratinocytes
Assay: Epidermal keratinocyte proliferation in dermal papilla cell and epidermal keratinocyte double-layer culture system
Assay type: cell-based
Details: 0.2 μg/ml, 2 μg/ml, 20 μg/ml, 200 μg/ml
Experimental: 500 μl of human epidermal keratinocytes (30,000 cells/ml) were added to each well of MULTIWELL 24well, followed by the addition of 1.0 μm of cell culture inserts for culture for 1 day. 300 μl of dermal papilla cells (20,000 cells/ml) had been added in the 1.0 μm of cell culture inserts. each 1 μl/well of the Radix et Rhizoma Ginseng extracts 1-7, the positive control (minoxidil sulfate) and the blank control (DMSO) was then added for continued culture for 3 days. After removal of the 1.0 μm of cell culture inserts, 50 μl/well of Cell Counting Kit-8 (Dojindo Laboratories) was added for continued culture for 2 hours, and the cell number was determined using a microplate reader (450 nm, Mix0).

SMILES: Nc1cc(N2CCCCC2)nc(N)[n+]1OS(=O)(=O)[O-] [Minoxidil sulfate, minoxidil sulfate]
- epidermal keratinocyte proliferation in double-layer culture system: no effect in promoting keratinocyte proliferation
